According to patent US8841483B2, “Compositions useful as inhibitors of voltage-gated sodium channels” (Vertex Pharmaceuticals Incorporated, priority 2006, dated 2014):

Target: NaV1.8 (Homo sapiens, UniProt Q9Y5Y9)
Assay: Activity against NaV 1.8 channel (Table 3), optical membrane potential / electrophysiology assays
Format: cell-based
Description: Compounds of the invention are useful as antagonists of voltage-gated sodium ion channels. Antagonist properties of test compounds were assessed as follows. Cells expressing the NaV of interest were placed into microtiter plates. After an incubation period, the cells were stained with fluorescent dyes sensitive to the transmembrane potential. The test compounds were added to the microtiter plate. The cells were stimulated with either a chemical or electrical means ti evoke a NaV dependent membrane potential change from unblocked channels, which was detected and measured with trans-membrane potential-sensitive dyes. Antagonists were detected as a decreased membrane potential response to the stimulus. The optical membrane potential assay utilized voltage-sensitive FRET sensors described by Gonzalez and Tsien (See, Gonzalez, J. E. and R. Y. Tsien (1995) “Voltage sensing by fluorescence resonance energy transfer in single cells” Biophys J 69(4): 1272-80, and Gonzalez, J. E. and R. Y. Tsien (1997) “Improved indicators of cell membrane potential that use fluorescence resonance energy transfer” Chem Biol 4(4): 269-77) in combination with instrumentation for measuring fluorescence changes such as the Voltage/Ion Probe Reader (VIPR®) (See, Gonzalez, J. E., K. Oades, et al. (1999) “Cell-based assays and instrumentation for screening ion-channel targets” Drug Discov Today 4(9): 431-439).
The following is an example of how NaV1.3 inhibition activity is measured using the optical membrane potential method #2. Other subtypes are performed in an analogous mode in a cell line expressing the NaV of interest.
HEK293 cells stably expressing NaV1.3 are plated into 96-well microtiter plates. After an appropriate incubation period, the cells are stained with the voltage sensitive dyes CC2-DMPE/DiSBAC2(3) as follows.
2X CC2-DMPE=20 μM CC2-DMPE: 10 mM CC2-DMPE is vortexed with an equivalent volume of 10% pluronic, followed by vortexing in required amount of HBSS containing 10 mM HEPES. Each cell plate will require 5 mL of 2X CC2-DMPE. 50 μL of 2X CC2-DMPE is to wells containing washed cells, resulting in a 10 μM final staining concentration. The cells are stained for 30 minutes in the dark at RT.
2X DISBAC2(3) with ABSC1=6 μM DISBAC2(3) and 1 mM ABSC1: The required amount of 10 mM DISBAC2(3) is added to a 50 ml conical tube and mixed with 1 μL 10% pluronic for each mL of solution to be made and vortexed together. Then HBSS/HEPES is added to make up 2X solution. Finally, the ABSC1 is added.
The 2X DiSBAC2(3) solution can be used to solvate compound plates. Note that compound plates are made at 2X drug concentration. Wash stained plate again, leaving residual volume of 50 μL. Add 50 uL/well of the 2X DiSBAC2(3) w/ABSC1. Stain for 30 minutes in the dark at RT.
The electrical stimulation instrument and methods of use are described in ION Channel Assay Methods PCT/US01/21652, herein incorporated by reference. The instrument comprises a microtiter plate handler, an optical system for exciting the coumarin dye while simultaneously recording the coumarin and oxonol emissions, a waveform generator, a current- or voltage-controlled amplifier, and a device for inserting electrodes in well. Under integrated computer control, this instrument passes user-programmed electrical stimulus protocols to cells within the wells of the microtiter plate.
Assay Protocol • 1. Insert or use electrodes into each well to be assayed. • 2. Use the current-controlled amplifier to deliver stimulation wave pulses for 3 s. Two seconds of pre-stimulus recording are performed to obtain the un-stimulated intensities. Five seconds of post-stimulation recording are performed to examine the relaxation to the resting state.
Data are analyzed and reported as normalized ratios of background-subtracted emission intensities measured in the 460 nm and 580 nm channels. Background intensities are then subtracted from each assay channel. […]

IC50 | Structure (SMILES)
< 2 µM | Cc1ncccc1Oc1cc(C(C)(C)C)ccc1C(=O)Nc1cccc(S(N)(=O)=O)c1 [Compound 114]
< 2 µM | Cc1ccccc1Oc1ccccc1C(=O)Nc1cccc(S(N)(=O)=O)c1 [Compound 91]
> 10 µM | CS(=O)(=O)c1ccc(C(=O)Nc2cccc(S(N)(=O)=O)c2)c(Cl)c1 [Compound 127]
> 10 µM | NS(=O)(=O)c1cccc(NC(=O)c2ccc(SC(F)(F)F)cc2)c1 [Compound 60]
< 2 µM | CCOc1cc(C(C)(C)C)ccc1C(=O)Nc1cccc(S(N)(=O)=O)c1 [Compound 103]
< 2 µM | CC(C)(C)c1ccc(C(=O)Nc2cccc(S(N)(=O)=O)c2)c(Oc2ccccc2N2CCCCC2)c1 [Compound 97]
> 10 µM | Cc1ccccc1C(=O)Nc1cccc(S(N)(=O)=O)c1 [Compound 69]
> 10 µM | NS(=O)(=O)c1cccc(NC(=O)c2ccccc2C(F)(F)F)c1 [Compound 47]
> 10 µM | CS(=O)(=O)c1ccc(C(=O)Nc2cccc(S(N)(=O)=O)c2)cc1 [Compound 56]
> 10 µM | CN(C)c1ccc(C(=O)Nc2cccc(S(N)(=O)=O)c2)cc1 [Compound 33]
> 10 µM | Cc1c(Cl)cc(NC(=O)c2ccc(C(C)(C)C)cc2)cc1S(N)(=O)=O [Compound 24]
> 10 µM | NS(=O)(=O)c1cccc(NC(=O)c2ccccc2OC(F)(F)F)c1 [Compound 30]
< 2 µM | CC(C)(C)c1ccc(C(=O)Nc2cccc(S(N)(=O)=O)c2)c(Oc2ccc(F)cc2)c1 [Compound 78, 2-(4-Fluorophenoxy)-4-tert-butyl-N-(3-(aminosulfonyl)phenyl)benzamide]
> 10 µM | NS(=O)(=O)c1cccc(NC(=O)c2ccc(OC(F)(F)F)cc2)c1 [Compound 34, N-(3-(Aminosulfonyl)phenyl)-4-(trifluoromethoxy)benzamide]
> 10 µM | CCCOc1ccccc1C(=O)Nc1cccc(S(N)(=O)=O)c1 [Compound 131]
> 10 µM | CN(C)S(=O)(=O)c1cccc(NC(=O)c2ccc(C(C)(C)C)cc2)c1 [Compound 72]
< 2 µM | CC(=O)c1cccc(Oc2cc(C(C)(C)C)ccc2C(=O)Nc2cccc(S(N)(=O)=O)c2)c1 [Compound 135]

IC50 | Structure (SMILES)
> 10 µM | NS(=O)(=O)c1cccc(NC(=O)c2ccc(C(F)(F)F)cc2)c1 [Compound 8]
> 10 µM | COc1ccccc1C(=O)Nc1cccc(S(N)(=O)=O)c1 [Compound 85]
> 10 µM | NS(=O)(=O)c1cccc(NC(=O)c2ccccc2-c2cccnc2)c1 [Compound 11]
> 10 µM | CCc1ccc(C(=O)Nc2cccc(S(N)(=O)=O)c2)cc1 [Compound 28]
< 2 µM | CC(C)(C)c1ccc(C(=O)Nc2cccc(S(N)(=O)=O)c2)c(Oc2ccc(Cl)cc2Cl)c1 [Compound 113]
< 2 µM | CC(C)(C)c1ccc(C(=O)Nc2cccc(S(N)(=O)=O)c2)c(Oc2ccc(F)cc2Cl)c1 [Compound 101]
> 10 µM | NS(=O)(=O)c1cccc(NC(=O)c2ccccc2Nc2cccc(-c3nnn[nH]3)c2)c1 [Compound 82]
< 2 µM | CC(C)(C)c1ccc(C(=O)Nc2cccc(S(N)(=O)=O)c2)c(Oc2ccc(C#N)cc2Cl)c1 [Compound 143]
< 2 µM | CC(=O)c1ccc(Oc2cc(C(C)(C)C)ccc2C(=O)Nc2cccc(S(N)(=O)=O)c2)cc1 [Compound 128]
> 10 µM | CC(C)COC(=O)NC1CCN(c2ccccc2C(=O)Nc2cccc(S(N)(=O)=O)c2)CC1 [Compound 76]
> 10 µM | NS(=O)(=O)c1cccc(NC(=O)c2ccccc2Nc2cccc(F)c2)c1 [Compound 6]
> 10 µM | NS(=O)(=O)c1cccc(NC(=O)c2ccccc2OCc2ccccc2)c1 [Compound 51]
2 to 10 µM | NS(=O)(=O)c1cccc(NC(=O)c2ccccc2Oc2ccccc2)c1 [Compound 63]
> 10 µM | NS(=O)(=O)c1cccc(NC(=O)c2cccc(-n3cccn3)c2)c1 [Compound 73]
> 10 µM | CC(=O)c1cccc(Nc2ccccc2C(=O)Nc2cccc(S(N)(=O)=O)c2)c1 [Compound 36]
< 2 µM | NS(=O)(=O)c1cccc(NC(=O)c2ccccc2Cc2ccccc2)c1 [Compound 7]
